Experimental data reported in patent EP2210604A1, “PHARMACEUTICAL COMPOSITIONS COMBINING A NONSTEROIDAL ANTI-INFLAMMATORY AGENT AND A XANTHINE OXIDASE INHIBITING AGENT, WHICH CAN BE USED TO CONTROL AND TREAT GOUT, GOUTY ARTHRITIS AND RELATED DISEASES” (Espinosa Abdala, Leopoldo de Jesús, priority 2007, dated 2009).

What was measured:
[1] = system: patients with Gouty arthritis; assay: Clinical study (Phase I): combination of Allopurinol/Meloxicam vs independent delivery, 52 weeks follow-up; assay type: in vivo; conditions: for Uric Acid Average, baseline / Uric Acid Average, at the end of study: Allopurinol 300 mg per day, Meloxicam 15 mg per day, or combination 300 mg/15 mg, n=50 per group; for Uric Acid Average, at the end of study: end of study (52 weeks)
Method: A clinical study was carried out assessing the efficacy of a combination of Allopurinol/Meloxicam vs independent delivery of Allopurinol and Meloxicam in patients with Gouty arthritis.
There were 150 patients with gout and with uric acid levels at least of 8 mg/dL randomly selected for this study.
Main validation criterion was uric acid concentration of 6 mg/dL, in the last 3 monthly determinations. Secondary validation criteria included a reduction of incidence in gout worsening events.

[2] = system: arthritic pain model in rat; assay: PIFIR model: uric acid-induced arthritic pain model in rat, antinociceptive activity; conditions: oral; for DE50: dose causing 50% of maximum possible effect, drug alone
Method: An arthritic pain model in rat was determined for said purpose. Data were interpreted by a Surface Synergistic Interaction analysis (ISS) and an isobolographic analysis to determine the interaction nature. ISS was calculated from the total antinociceptive effect produced by the combination after subtracting the antinociceptive effect produced by drug separately.
For this study Wistar female rats were used [Crl (WI) BR] weighing between 180 to 200 gr. […] Number of animals in experiment was kept minimal and animals were kept in a room with climate and light control with a 12-hour light/dark cycle.
At the completion of study rats were sacrificed.
Animals were anesthesized with ether in a chamber (Pyrex glass dryer with ether vapor). Nociception was induced through a 0.05 mL uric acid intraarticular (ia) injection suspended in mineral oil in knee joint from right back leg. The suspension was prepared by milling 3.0 g. of uric acid with 10 mL of mineral oil in a glass mortar with pestle (Pyrex). Intraarticular injection was carried out through patellar ligament using a 1 mL glass syringe (Beckton Dickinson LTA, Brazil) with a 5 mm 24-gauge needle. An electrode was implanted immediately after to the plantar surface of each back claw between plantar pads. […] Contact time between each electrode from rat limb and cylinder was registered. […] This time was determined as zero time for measuring antinociceptive effects; these effects were measured every 30 minutes during the following 4 hours. This allowed determining the time course for antinociceptive effects in the same animal. Antinociception was considered as a recovery of contact time. Data are expressed as Functionality percentage index (IF%, that is, contact time on injected leg by the contact time in left leg, control, multiplied by 100). For the purpose of this study, nociception induction in experimental animals was unavoidable. However, care was taken to prevent an unnecessary suffering. All experiments were performed between 7:00 am and 2:00 pm.
Study data, tables and figures are expressed as IF%. Curves for IF% vs time were prepared for each treatment and the corresponding course time was obtained. Antinociception was estimated as a recovery of IF%. Accumulated antinociceptive effect during the whole observation period (4 hours) was determined as the area below the curve (ABC) from time course to obtain a dose-response curve and for analyzing the total antinociceptive effect obtained by analgesic agent whether alone or in combination.
ABC was calculated for each drug combination and for each of the components. […] If the […] ABC was higher than the theoretical sum, the result was considered enhancement; when it was similar to the theoretical sum then was determined to show additive antinociceptive effects. […] All values for each treatment are average ± S. E. M., for six animals. ABC values for drug combinations were compared with expected values using the Student test.
Doses which caused 50% of maximum possible effect (DE50) of each drug were calculated by performing a linear regression analysis of the linear portion from dose-response curves. The isobologram was prepared by using the DE50 when drugs were delivered alone or in combination. […] DE50 value from combination total dose was calculated from the dose-response curve of combined drugs. Statistical significance between additive theoretical point and DE50 experimental value was validated by using the Student test.

plasma proteins = conditions: cited from earlier work
[3] = cited from earlier work

Cc1cnc(NC(=O)C2=C(O)c3ccccc3S(=O)(=O)N2C)s1 [Meloxicam]
Uric Acid Average, baseline [1]: 10 mg/dL
Uric Acid Average, at the end of study [1]: 9 mg/dL
ABC ([2]; Meloxicam 0.32 mg/kg alone, 4 hours): 65.0 ± 9.6 au
ABC ([2]; Meloxicam 0.56 mg/kg alone, 4 hours): 98.7 ± 15.5 au
ABC ([2]; Meloxicam 1.78 mg/kg alone, 4 hours): 279.0 ± 15.5 au
antinociceptive efficacy (ABC) ([2]; Meloxicam 2.16 mg/kg (so in the source), 4 hours): 295.8 ± 14.9 au
antinociceptive effect (ABC) ([2]; Meloxicam 3.16 mg/kg (maximum used dosage), 4 hours): 295.8 ± 14.9 au
DE50 [2]: 0.86 ± 0.10 mg/kg
adherence with plasma proteins (plasma proteins): > 99%
bioavailability ([3]; oral): 89%

Oc1ncnc2[nH]ncc12 [Allopurinol]
global incidence of acute events ([1]; along 9 to 52 weeks, comparison between groups): similar
Uric Acid Average, baseline [1]: 9 mg/dL
Uric Acid Average, at the end of study [1]: 7 mg/dL
adverse events reported (gastrointestinal upset) ([1]; number of events per group of 50 patients, 52 weeks): Six
ABC ([2]; Allopurinol 10.0 mg/kg alone, 4 hours): 22.5 ± 9.3 au
ABC ([2]; Allopurinol 17.78 mg/kg alone, 4 hours): 58.2 ± 23.7 au
antinociceptive efficacy (ABC) ([2]; Allopurinol 56.23 mg/kg, 4 hours): 207.7 ± 24.7 au
side effects in animals ([2]; Allopurinol at 100 mg/kg): did not cause side effects
walking capability of treated rats ([2]; Meloxicam 0.18-5.62 mg/kg, Allopurinol 3.16-56.23 mg/kg): did not affect the walking capability
DE50 [2]: 44.29 ± 0.06 mg/kg
ingested drug excreted in stools ([3]; in vivo): About 20%

Cc1ccc(-c2cc(C(F)(F)F)nn2-c2ccc(S(N)(=O)=O)cc2)cc1 [Celecoxib]
time to maximum plasma levels ([3]; after oral dose): about 3 hours
dose recovered in feces ([3]; as metabolites): 57%
dose recovered in urine ([3]; as metabolites): 27%
half-life ([3]; clearance half-life): about 11 hours
Plasmatic clearance ([3]; in vivo): about 500 mL/min
distribution volume ([3]; in vivo): about 400 L
